Measurements: ChEMBL document CHEMBL4417637, “Sensitization of cancer cells to nampt inhibitors by nicotinic acid phosphoribosyltransferase neutralization” (2017)
Calls of active or inactive are those of the source. The rule behind the calls is not given here.

Experiments:
[1] = target: T1, Nicotinate phosphoribosyltransferase (Homo sapiens) (UniProt Q6XQN6); experiment: Inhibition of NAPRT in human OVCAR5 cells assessed as potentiation of NAMPT inhibitor FK866-induced cytotoxicity by measuring reduction in cell viability at 300 uM to 1 mM incubated for 72 hrs by SRB assay; format: cell-based
T1 sequence (whole entry): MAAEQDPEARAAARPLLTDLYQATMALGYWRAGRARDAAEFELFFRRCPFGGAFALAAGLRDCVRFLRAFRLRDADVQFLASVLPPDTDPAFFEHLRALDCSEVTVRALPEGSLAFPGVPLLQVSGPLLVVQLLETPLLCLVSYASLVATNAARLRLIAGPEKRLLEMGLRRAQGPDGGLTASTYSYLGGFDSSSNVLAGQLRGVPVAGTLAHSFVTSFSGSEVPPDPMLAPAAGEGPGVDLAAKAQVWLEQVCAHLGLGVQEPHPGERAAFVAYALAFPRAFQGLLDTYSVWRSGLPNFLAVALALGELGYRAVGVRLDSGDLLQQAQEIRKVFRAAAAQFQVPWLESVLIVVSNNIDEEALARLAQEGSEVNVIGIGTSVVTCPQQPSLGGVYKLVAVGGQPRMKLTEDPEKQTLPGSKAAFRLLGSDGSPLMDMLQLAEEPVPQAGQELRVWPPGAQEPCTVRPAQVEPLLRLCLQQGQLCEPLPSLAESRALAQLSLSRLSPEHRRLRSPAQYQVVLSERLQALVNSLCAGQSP

NAMALVA = experiment: Potentiation of NAMPT inhibitor 10 mg/kg, ip bid FK866-induced antitumor activity in human NAMALWA cells xenografted in SCID mouse assessed as increase in mouse survival at 35 mg/kg, ip bid up to 45 days; format: functional, organism-based
[2] = Toxicity in NAMPT inhibitor 10 mg/kg, ip bid FK866 treated SCID mouse xenografted with human NAMALWA cells assessed as induction of obvious signs of clinical toxicity at 35 mg/kg, ip bid up to 45 days; format: organism-based; settings: in vivo, 1080 h

Row | Structure (SMILES) | inhibition [1] | Activity (NAMALVA) | Activity [2]
1 | O=C(O)c1ccccc1O | Active | – | –
2 | CC(=O)Oc1ccccc1C(=O)O [ASPIRIN] | – | Active | Non-Toxic
